Results published in US20230406865A1, “CRYSTAL FORM OF FREE BASE OF INHIBITOR CONTAINING BICYCLIC RING DERIVATIVE AND PREPARATION METHOD AND APPLICATION OF CRYSTAL FORM” (SHANGHAI HANSOH BIOMEDICAL CO., LTD., priority 2020, published 2023).
pIC50: −log10 of the molar value.

Assays:
KDR kinase = molecular target: T1, KDR kinase (Homo sapiens, UniProt P35968); experiment: HTRF kinase activity inhibition, KDR; format: biochemical; conditions: for pIC50: HTRF, ATP at Km; for Ratio (KDR/RET): KDR IC50 / RET IC50
T1 construct: purchased Carna 08-191
T1 sequence (P35968 20-1356): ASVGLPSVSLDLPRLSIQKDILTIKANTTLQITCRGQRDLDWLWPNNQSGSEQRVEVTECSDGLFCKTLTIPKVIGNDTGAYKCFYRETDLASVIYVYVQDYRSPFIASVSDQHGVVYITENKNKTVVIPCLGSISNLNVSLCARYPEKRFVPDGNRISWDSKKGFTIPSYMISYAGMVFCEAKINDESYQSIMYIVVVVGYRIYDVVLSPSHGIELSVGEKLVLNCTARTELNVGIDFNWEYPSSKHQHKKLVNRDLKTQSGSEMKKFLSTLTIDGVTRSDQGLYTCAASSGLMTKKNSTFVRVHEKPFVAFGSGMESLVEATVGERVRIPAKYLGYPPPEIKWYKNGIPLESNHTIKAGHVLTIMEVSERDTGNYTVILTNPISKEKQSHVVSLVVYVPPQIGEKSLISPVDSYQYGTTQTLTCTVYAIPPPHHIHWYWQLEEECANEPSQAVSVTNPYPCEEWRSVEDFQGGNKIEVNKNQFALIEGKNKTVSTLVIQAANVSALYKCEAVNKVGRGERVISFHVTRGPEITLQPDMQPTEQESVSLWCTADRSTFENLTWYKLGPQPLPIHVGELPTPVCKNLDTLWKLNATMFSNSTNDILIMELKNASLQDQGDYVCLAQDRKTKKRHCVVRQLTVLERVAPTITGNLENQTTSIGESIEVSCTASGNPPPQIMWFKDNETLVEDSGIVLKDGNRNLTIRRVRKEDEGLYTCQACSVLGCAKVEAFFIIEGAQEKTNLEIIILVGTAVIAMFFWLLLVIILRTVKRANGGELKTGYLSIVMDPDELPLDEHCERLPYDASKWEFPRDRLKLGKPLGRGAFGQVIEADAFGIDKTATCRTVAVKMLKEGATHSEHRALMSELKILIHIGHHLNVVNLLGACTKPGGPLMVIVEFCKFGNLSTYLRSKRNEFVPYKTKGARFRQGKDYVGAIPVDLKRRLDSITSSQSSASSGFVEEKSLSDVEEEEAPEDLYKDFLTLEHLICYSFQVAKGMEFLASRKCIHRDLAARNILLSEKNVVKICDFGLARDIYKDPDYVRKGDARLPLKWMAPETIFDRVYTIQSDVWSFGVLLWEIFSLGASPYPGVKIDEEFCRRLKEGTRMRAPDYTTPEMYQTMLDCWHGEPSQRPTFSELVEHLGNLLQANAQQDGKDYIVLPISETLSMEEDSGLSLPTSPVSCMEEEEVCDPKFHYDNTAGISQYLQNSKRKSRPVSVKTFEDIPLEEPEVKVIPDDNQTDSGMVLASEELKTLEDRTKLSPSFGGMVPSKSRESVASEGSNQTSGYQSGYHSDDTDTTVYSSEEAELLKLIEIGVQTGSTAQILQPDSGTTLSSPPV
Source text: 2.2 Experimental Reagents: • KDR kinase was purchased from Carna Company, and the article number was 08-191; • HTRF KinEASE-TK kit was purchased from Cisbio Company, and the article number was 62TK0PEC; • ATP was purchased from Thermofisher Company, and the article number was PV3227; • 384-well plate was purchased from PerkinElmer Company, and the article number was 6007290.
In this experiment, the homogeneous time-resolved fluorescence (HTRF) method was used for the detection of compounds on KDR kinase activity.

RET kinase = molecular target: T2, RET kinase (Homo sapiens, UniProt P07949); experiment: HTRF kinase activity inhibition, RET wild-type; format: biochemical; conditions: ATP at Km
T2 construct: purchased Carna 08-159
T2 sequence (P07949 29-1114): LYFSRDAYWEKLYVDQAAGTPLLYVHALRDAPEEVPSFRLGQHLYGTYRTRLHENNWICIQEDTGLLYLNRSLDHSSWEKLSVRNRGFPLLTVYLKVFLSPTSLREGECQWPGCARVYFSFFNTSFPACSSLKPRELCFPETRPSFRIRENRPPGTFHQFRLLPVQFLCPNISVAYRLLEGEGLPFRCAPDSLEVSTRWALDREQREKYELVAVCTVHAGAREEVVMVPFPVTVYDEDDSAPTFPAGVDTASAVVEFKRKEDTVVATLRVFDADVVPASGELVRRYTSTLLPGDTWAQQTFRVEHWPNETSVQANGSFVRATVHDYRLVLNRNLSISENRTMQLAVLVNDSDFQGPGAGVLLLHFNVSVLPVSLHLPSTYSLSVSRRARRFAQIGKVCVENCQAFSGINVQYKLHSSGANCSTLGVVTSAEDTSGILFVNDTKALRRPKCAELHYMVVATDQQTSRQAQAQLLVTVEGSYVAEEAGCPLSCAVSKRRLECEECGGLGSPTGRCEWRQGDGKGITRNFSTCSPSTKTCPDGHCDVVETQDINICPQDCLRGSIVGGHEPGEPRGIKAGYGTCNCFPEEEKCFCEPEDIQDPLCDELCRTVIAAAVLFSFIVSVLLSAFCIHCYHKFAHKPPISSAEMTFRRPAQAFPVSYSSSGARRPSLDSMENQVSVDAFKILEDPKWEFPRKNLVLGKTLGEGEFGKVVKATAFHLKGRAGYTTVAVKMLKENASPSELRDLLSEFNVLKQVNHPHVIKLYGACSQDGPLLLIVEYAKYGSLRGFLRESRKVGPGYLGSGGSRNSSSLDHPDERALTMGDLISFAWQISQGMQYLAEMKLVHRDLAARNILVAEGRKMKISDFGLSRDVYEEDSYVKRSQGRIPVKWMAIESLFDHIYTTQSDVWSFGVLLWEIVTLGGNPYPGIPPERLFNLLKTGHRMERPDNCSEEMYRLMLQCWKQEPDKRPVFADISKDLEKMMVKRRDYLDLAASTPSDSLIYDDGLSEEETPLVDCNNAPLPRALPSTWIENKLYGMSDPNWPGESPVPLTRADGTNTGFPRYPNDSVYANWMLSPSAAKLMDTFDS
Source text: 2.2 Experimental Reagents: • RET enzyme was purchased from Carna Company, and the article number was 08-159; • RET M918T enzyme was purchased from Carna Company, and the article number was 08-508; • KIF5B-RET was purchased from SignalChem Company, the article number was R02-19FG-05; • CCDC6-RET was purchased from SignalChem Company, the article number was R02-19BG-05; • RET V804M enzyme was purchased from Thermofisher Company, and the article number was PV6223; • RET V804L enzyme was purchased from Thermofisher Company, and the article number was PV4397; • HTRF KinEASE-TK kit was purchased from Cisbio Company, and the article number was 62TK0PEC; • ATP was purchased from Thermofisher Company, and the article number was PV3227; • 384-well plate was purchased from PerkinElmer Company, and the article number was 6007290.
In this experiment, a homogeneous time-resolved fluorescence (HTRF) method was used for the detection of compounds on RET kinase activity.

[1] = tested on: TT cells (MTC, RET C634W); experiment: Inhibition of proliferation of TT cells (CellTiter-Glo, 72 h); format: cell-based; conditions: Homo sapiens
Description: TT cells were purchased from the cell bank of the Chinese Academy of Sciences.
When TT cells were cultured to the appropriate fusion level, TT cells were collected, and the cells were adjusted to the appropriate cell concentration using complete medium, and the cell suspension was spread in a 96-well plate, 90 μL per well, and placed to the wall of a 37° C., 5% CO2 incubator overnight; and compound solutions of different concentrations were prepared using DMSO and culture medium; and a solvent control was set, the compound solution was added to a 96-well plate, 10 μL per well, and placed to the wall of a 37° C., 5% CO2 incubator for 72 hours; CellTiter-Glo solution was added thereto and the mixture was mixed well by shaking, incubated for 10 minutes in the dark, and read by BioTek Synergy H1 microplate reader.
The IC50 values were obtained by using luminescence signal values to calculate the inhibition rate, the concentration and the inhibition rate were fitted to a nonlinear regression curve using Graphpad Prism software.

[2] = Balb/C mouse pharmacokinetics, oral 5 mg/kg; format: in vivo, Balb/C mice; conditions: male, p.o. 5 mg/kg, plasma
Description: The pharmacokinetic behavior of the following compound embodiments, administered orally at a dose of 5 mg/kg in plasma in mice, was studied using Balb/C mice as test animals.
Balb/C Mouse 6/embodiment, male, Shanghai Jiesijie Laboratory Animal Co., Ltd, Animal Production License No. (SCXK (Shanghai) 2013-0006 N0.311620400001794).
Balb/C mice, males; p.o. after overnight fasting, respectively, at a dose of 5 mg/kg, administered in a volume of 10 mL/kg.
0.5% CMC-Na (1% Tween80) was dissolved by ultrasound, and prepared into clear solution or uniform suspension.
Before and after administration, 0.1 mL of blood was collected from mice at 0, 0.5, 1, 2, 4, 6, 8 and 24 hours by orbital collection, placed in EDTA-K2 tubes, centrifuged at 6000 rpm at 4° C. for 6 minutes to separate plasma, and stored at −80° C.
2.5 Sample Handling: • 1) 40 μL of plasma sample was precipitated by adding 160 μL of acetonitrile, mixed and centrifuged at 3500×g for 5-20 minutes. • 2) 100 μL of the supernatant solution after treatment was taken to analyze the concentration of the test compound by LC/MS/MS.
2.6 Liquid Phase Analysis • Liquid phase conditions: Shimadzu LC-20AD pump • Mass spectrometry conditions: AB Sciex API 4000 mass spectrometer • Chromatographic column: phenomenex Gemiu 5 μM C18 50×4.6 mm • Mobile phase: Liquid A was 0.1% formic acid aqueous solution, liquid B was acetonitrile • Flow rate: 0.8 mL/min • Elution time: 0-4.0 minutes, the eluent was as follows:
The main pharmacokinetic parameters were calculated by WinNonlin 6.1 and the results of the mouse pharmacokinetic experiments were shown in Table 13 below.

Row | Structure (SMILES) | pIC50 (KDR kinase) | Ratio (KDR/RET) (KDR kinase) | pIC50 (RET kinase) | other results
1 | COc1ccc(CN2C3CC2CN(c2ccc(-c4cc(OCC5CS(=N)(=O)C5)cn5ncc(C#N)c45)cn2)C3)cn1 (stereo not shown) [Embodiment 12, 6-((1-Imino-1-hydroxy-1l6-thietan-3-yl)methoxy)-4-(6-(6-((6-methoxypyridin-3-yl)methyl)-3,6-diazabicyclo[3.1.1]heptan-3-yl)pyridin-3-yl)pyrazolo[1,5-a]pyridine-3-carbonitrile] | 7.16 | 55 | 8.89 | –
2 | COc1ccc(CN2C3CC2CN(c2ccc(-c4cc(OCC5(C#N)COC5)cn5ncc(C#N)c45)cn2)C3)cn1 [Embodiment 37, 6-((3-Cyanooxetan-3-yl)methoxy)-4-(6-(6-((6-methoxypyridin-3-yl)methyl)-3,6-diazabicyclo[3.1.1]heptan-3-yl)pyridin-3-yl)pyrazolo[1,5-a]pyridine-3-carbonitrile] | 7.22 | 85 | 9.15 | –
3 | CC(C)(O)C#Cc1cc(-c2ccc(N3CC4CC(C3)N4Cc3ccc(OC4CC4)nc3)nc2)c2c(C#N)cnn2c1 [Embodiment 26, 4-(6-(6-((6-Cyclopropoxypyridin-3-yl)methyl)-3,6-diazabicyclo[3.1.1]heptan-3-yl)pyridin-3-yl)-6-(3-hydroxy-3-methylbut-1-yn-1-yl)pyrazolo[1,5-a]pyridine-3-carbonitrile] | – | – | – | pIC50 [1]: 7.72
4 | CC1(NC(=O)c2ncccc2F)CCN(c2ccc(-c3cc(OCC4(C#N)CC4)cn4ncc(C#N)c34)cn2)CC1 [Embodiment 93, N-(1-(5-(3-Cyano-6-((1-cyanocyclopropyl)methoxy)pyrazolo[1,5-a]pyridin-4-yl)pyridin-2-yl)-4-methylpiperidin-4-yl)-3-fluoropicolinamide] | 6.82 | 136 | 8.96 | –
5 | COc1ccc(CN2C3CC2CN(c2ccc(-c4cc(OCCCS(C)(=N)=O)cn5ncc(C#N)c45)cn2)C3)cn1 (stereo not shown) [Embodiment 6, 4-(6-(6-((6-Methoxypyridin-3-yl)methyl)-3,6-diazabicyclo[3.1.1]heptan-3-yl)pyridin-3-yl)-6-(3-(S-methylsulfonimidoyl)propoxy)pyrazolo[1,5-a]pyridine-3-carbonitrile] | 7.56 | 35 | 9.10 | –
6 | COc1ccc(CN2C3CC2CN(c2ccc(-c4cc(OCC5(C#N)CC(F)(F)C5)cn5ncc(C#N)c45)cn2)C3)cn1 [Embodiment 57, 6-((1-Cyano-3,3-difluorocyclobutyl)methoxy)-4-(6-(6-((6-methoxypyridin-3-yl)methyl)-3,6-diazabicyclo[3.1.1]heptan-3-yl)pyridin-3-yl)pyrazolo[1,5-a]pyridine-3-carbonitrile] | 6.68 | 187 | 8.96 | –
7 | COc1ccc(CN2C3CC2CN(c2ccc(-c4cc(OCC5(C#N)CCC5)cn5ncc(C#N)c45)cn2)C3)cn1 [Embodiment 36, 6-((1-Cyanocyclobutyl)methoxy)-4-(6-(6-((6-methoxypyridin-3-yl)methyl)-3,6-diazabicyclo[3.1.1]heptan-3-yl)pyridin-3-yl)pyrazolo[1,5-a]pyridine-3-carbonitrile] | 6.67 | 257 | 9.08 | MRT ([2]; read-out: Average residence time MRT): 3.8 h; Cmax ([2]; read-out: Blood concentration Cmax): 1490 ng/mL; AUC(0-t) ([2]; read-out: Curve area AUC0-t): 6210 ng·h/mL; AUC(0-inf) ([2]; read-out: Curve area AUC0-∞): 6220 ng·h/mL; half-life ([2]; read-out: Half-life t1/2 (converted)): 2.19 h; Tmax ([2]; read-out: Peak time tmax): 0.5 h
8 | COc1ccc(CN2C3CC2CN(c2ccc(-c4cc(N5CC(C)(O)C5)cn5ncc(C#N)c45)cn2)C3)cn1 [Embodiment 33, 6-(3-Hydroxy-3-methylazetidin-1-yl)-4-(6-(6-((6-methoxypyridin-3-yl)methyl)-3,6-diazabicyclo[3.1.1]heptan-3-yl)pyridin-3-yl)pyrazolo[1,5-a]pyridine-3-carbonitrile] | 8.25 | 14 | 9.40 | –
9 | CC1(O)CC2(CN(c3cc(-c4ccc(N5CCC(C)(NC(=O)c6ncccc6Cl)CC5)nc4)c4c(C#N)cnn4c3)C2)C1 [Embodiment 89, 3-Chloro-N-(1-(5-(3-cyano-6-(6-hydroxy-6-methyl-2-azaspiro[3.3]heptan-2-yl)pyrazolo[1,5-a]pyridin-4-yl)pyridin-2-yl)-4-methylpiperidin-4-yl)picolinamide] | 8.05 | 8 | 8.96 | –
10 | COc1ccc(CN2C3CC2CN(c2ccc(-c4cc(N5CCC(C)(O)CC5)cn5ncc(C#N)c45)cn2)C3)cn1 [Embodiment 35, 6-(4-Hydroxy-4-methylpiperidin-1-yl)-4-(6-(6-((6-methoxypyridin-3-yl)methyl)-3,6-diazabicyclo[3.1.1]heptan-3-yl)pyridin-3-yl)pyrazolo[1,5-a]pyridine-3-carbonitrile] | 8.21 | 13 | 9.31 | –
11 | COc1ccc(CN2C3CC2CN(c2ccc(-c4cc(N5CCC(C)(O)C5)cn5ncc(C#N)c45)cn2)C3)cn1 (stereo not shown) [Embodiment 34, 6-(3-Hydroxy-3-methylpyrrolidin-1-yl)-4-(6-(6-((6-methoxypyridin-3-yl)methyl)-3,6-diazabicyclo[3.1.1]heptan-3-yl)pyridin-3-yl)pyrazolo[1,5-a]pyridine-3-carbonitrile] | 8.33 | 7 | 9.15 | –
12 | CC1(NC(=O)c2ncccc2Cl)CCN(c2ccc(-c3cc(N4CC(C(C)(C)O)C4)cn4ncc(C#N)c34)cn2)CC1 [Embodiment 88, 3-Chloro-N-(1-(5-(3-cyano-6-(3-(2-hydroxypropan-2-yl)azetidin-1-yl)pyrazolo[1,5-a]pyridin-4-yl)pyridin-2-yl)-4-methylpiperidin-4-yl)picolinamide] | 7.21 | 49 | 8.92 | –
13 | CC1(C#N)CN(c2cc(-c3ccc(N4CCC(C)(NC(=O)c5ncccc5Cl)CC4)nc3)c3c(C#N)cnn3c2)C1 [Embodiment 96, 3-Chloro-N-(1-(5-(3-cyano-6-(3-cyano-3-methylazetidin-1-yl)pyrazolo[1,5-a]pyridin-4-yl)pyridin-2-yl)-4-methylpiperidin-4-yl)picolinamide] | 7.80 | 22 | 9.14 | –
14 | COc1ccc(CN2C3CC2CN(c2ccc(-c4cc(NC(=O)C5(C#N)CC5)cn5ncc(C#N)c45)cn2)C3)cn1 [Embodiment 74, 1-Cyano-N-(3-cyano-4-(6-(6-((6-methoxypyridin-3-yl)methyl)-3,6-diazabicyclo[3.1.1]heptan-3-yl)pyridin-3-yl)pyrazolo[1,5-a]pyridin-6-yl)cyclopropane-1-carboxamide] | 6.61 | 137 | 8.74 | –
15 | COc1ccc(CN2C3CC2CN(c2ccc(-c4cc(NC(=O)C(C)(C)O)cn5ncc(C#N)c45)cn2)C3)cn1 [Embodiment 42, N-(3-Cyano-4-(6-(6-((6-methoxypyridin-3-yl)methyl)-3,6-diazabicyclo[3.1.1]heptan-3-yl)pyridin-3-yl)pyrazolo[1,5-a]pyridin-6-yl)-2-hydroxy-2-methylpropanamide] | 6.98 | 67 | 8.81 | –
